Paper PMC5937893, “Heat-stable sublingual oxytocin tablets as a potential needle-free approach for preventing postpartum hemorrhage in low-resource settings” (Drug Delivery and Translational Research, 2018)

Legend:
[1] = Saliva stability study; type: in vitro ADME; details: pooled human saliva, 37 °C, 1 hour, HPLC, content at 1 hour divided by content at time zero, two aliquots per time point
Description: Since the oxytocin FDTs are intended to be administered under the tongue, we confirmed the stability of oxytocin in saliva prior to initiation of the pharmacokinetic study. The FDTs were incubated in pooled human saliva maintained at 37 °C for an hour along with unformulated oxytocin as a control. […]
the resting TEER measurement from the final TEER measurement. A reduction in the TEER indicates increased permeability of oral tissue after treatment.
Disintegration testing: Non-sink method
50, 60, 90 seconds) for complete disintegration. […]
aliquoted into four different vials. […]
immediately. […] The other two
HPLC mobile phase liquid and centrifuged immediately. The supernatants were loaded for HPLC analysis at the […]
1-hour divided by the content at time zero.
Test material Route of administration (IU/animal) Dose administered
Formulation 4 Sublingual 600 1 tablet
Formulation 4 Sublingual 400 1 tablet
Control Intramuscular 20 1 mL of 20 IU/mL
The FDTs were administered […]
once on days 1, 3, 8, 15, and 18. […]
aid in dissolution of the tablet. […]
right hind limb (biceps femoris) once on day 22.

[2] = in vivo
Description: (§1) Next, a crossover pharmacokinetic study with 24-h washout was conducted to determine oxytocin plasma levels after SL administration and to compare with the standard IM route in female mini pigs, chosen due to the similarity in oral cavity architecture with humans. Ten anesthetized female, non-pregnant Yucatan miniature swine, Sus scrofa 3 to 5 months old and weighing 15 to 20 kg were administered an oxytocin FDT under the tongue. For the control, mini pigs received 20 IU of oxytocin in a 1 mL IM injection into the right hind limb. […] Blood was collected from both groups at several time points up to 60 min after administration, via previously implanted vascular access ports, and plasma was obtained for analysis. A commercial enzyme-linked immunosorbent assay kit was used to detect oxytocin in the plasma.
(§2) The pharmacokinetic data were derived from ten non-pregnant female Yucatan miniature swine, Sus scrofa, aged 3
(§3) to 5 months, weighing 15 to 20 kg (Sinclair Bio-Resources, LLC, Auxvasse, MO, USA). Ten experimental pigs
(§4) received a sublingual (SL) tablet with 400 IU of oxytocin, and ten received SL tablets with 600 IU oxytocin. Ten
(§5) control pigs received 20 IU of oxytocin in a 1 mL intramuscular (IM) injection.
(§6) Animals were anesthetized with dexmedetomidine (0.04 mg/kg) mixed with midazolam (0.2 mg/kg), and anesthesia […]

[3] = parameters: method as in earlier work; details: women, buccal route, levels greater than 1000 IU, induction of labor; ref [10]; cited from earlier work
[4] = in vivo; details: female, Yucatan miniature swine, pig, im, 20 IU
Description: as §1, §2, §3, §4, §5, §6

- Proteolytic degradation of oxytocin in saliva [1]: none to minimal proteolytic degradation
- Plasma levels of oxytocin in unanesthetized versus anesthetized pigs [2]: significantly higher
- Cmax [4]: 0.612 ng/mL
SMILES: CC[C@H](C)[C@@H]1NC(=O)[C@H](Cc2ccc(O)cc2)NC(=O)[C@@H](N)CSSC[C@@H](C(=O)N2CCC[C@H]2C(=O)N[C@@H](CC(C)C)C(=O)NCC(N)=O)NC(=O)[C@H](CC(N)=O)NC(=O)[C@H](CCC(N)=O)NC1=O [oxytocin]
- Adverse events [3]: without any adverse events
